Reference: patent US12622910B2, “Inhibitors of Bruton's tyrosine kinase and methods of their use” (Janssen Pharmaceutica NV, priority 2021, dated 2026)

Columns and labels:
[1] = test system: IL-6 secretion, ABC-DLBCL OCI-LY-10 cells; assay: IL-6 secretion by OCI-LY-10 cells (MesoScale); assay type: cell-based; conditions: Homo sapiens, OCI-Ly10; 6 independent experiments; read-out: IC50, IL-6 secretion (mean±SEM)
Description: In Vitro Activity in DLBCL Cell Lines—NFκB signaling regulates the secretion of multiple cytokines, including interleukin (IL)-6 and IL-10. Secretion of IL-6 and -10 by ABC-DLBCL OCI-LY-10 cells was measured using a MesoScale assay. […] To determine the anti-proliferative activity of the compound of formula (III), several ABC-DLBCL cell lines—OCI-LY-3, OCI-LY-10, TMD8, and HBL-1—were treated for 8 days. […] The OCI-LY-3 cell line, which harbors a CARD11 mutation downstream of BTK in the NF-κB signaling pathway, was completely insensitive to the compound of Formula (III) up to 2 μM. In 2 experiments, OCI-LY-3 cells were insensitive to the compound of Formula (III) at all concentrations up to 10 μM.

[2] = Blood-to-plasma concentration ratio; assay type: in vitro ADME; conditions: monkey, fresh blood
[3] = test system: B-cell activation; assay: Rat whole blood assay, anti-IgD-induced B-cell activation (CD86); assay type: cell-based, Wistar rat; conditions: anti-IgD stimulation, n=2, read-out: IC50, inhibition of B-cell activation in rat whole blood
Text: The compound of Formula (III) Inhibits B-cell receptor activation—Rat whole blood assays were used to assess the ability of the compound of Formula (III) to inhibit activation of primary B cells in whole blood. The assay used anti-IgD stimulation to trigger B-cell activation. Cell activation in freshly isolated blood was quantified by staining for cell surface expression of B220 to identify B cells and a cell activation marker CD86.
Rat Whole Blood Assay-Anti-rat IgD was purchased from Bio-Rad AbD Serotec, Ltd. (Oxford, United Kingdom). Rat B220-PE and rat CD86-FITC were purchased from eBioscience (San Diego, CA). Lysing buffer was purchased from BD Biosciences (San Diego, CA). To determine the potency of each compound, inhibition of anti-IgD-induced activation of B cells in rat whole blood was assessed by flow cytometry. […]
Inhibition percentage was determined by the following equation: Inhibition %=(ActBstim−ActBcompound)×100/(ActBstim−ActBunstim), where […], ActBunstim, and ActBcompound refer to the percentage of activated B cells of the stimulated (no compound), unstimulated (no antibody), and compound treated wells, respectively. The IC50 for each compound was then calculated from the inhibition % of the titrations using a 4-PL fit. […]

[4] = molecular target: BTK (Homo sapiens, UniProt Q06187); assay: BTK protein occupancy in OCI-LY10 tumor lysates of NSG mice; assay type: in vivo; set-up: free BTK protein in OCI-LY10 DLBCL tumor lysates harvested using an BTK occupancy assay; endogenous in cells; host or cells: OCI-LY10 human ABC-DLBCL cells grown as SC xenograft in NSG mice; tumour lysates; conditions: for receptor occupancy at 10 mg/kg / receptor occupancy at 30 mg/kg / receptor occupancy at 100 mg/kg: OCI-Ly10, mouse
Description: FIG. 19 depicts BTK protein occupancy in OCI-LY10 ABC-DLBCL tumor lysates of NSG mice treated with the compound of Formula (III). Unoccupied BTK protein levels are graphed as % normalized to vehicle control BTK levels ±SEM. Female mice were implanted SC on the right flank on day 0. Tumors were established 39 days post implantation, randomized into experimental groups and dosed orally with a single dose (n=5/dose level/time point). Tumor samples were harvested 4, 12 and 24 hours after compound administration.
To evaluate the duration of signaling shutdown and occupancy of BTK protein after compound administration, we determined the amount of free BTK protein in OCI-LY10 DLBCL tumor lysates harvested using an BTK occupancy assay. […] BTK protein occupancy levels remained high with 71%, 94% and 96%, respectively, at 12 hours and 70%, 91% and 85%, respectively after 24 hours. (FIG. 19). The antitumor efficacy of compound of Formula (III) was assessed in mice bearing established SC OCI-LY10 human CD79b mutant DLBCL xenografts in female NSG mice, dosed either once (QD) or twice (BID) a day. Analysis of tumor growth inhibition was performed 14 days into the 21-day treatment period (Day 45) as that was the last day when 2/3 of the vehicle controls remained on the study. Compound of Formula (III) induced tumor growth inhibition in the OCI-LY10 model at all dose levels. […] Taken together, the in vivo data support a first in-human trial of the compound of Formula (III) in combination with Venetoclax in patients with B cell lymphomas.

Sequence of BTK (Q06187 whole entry): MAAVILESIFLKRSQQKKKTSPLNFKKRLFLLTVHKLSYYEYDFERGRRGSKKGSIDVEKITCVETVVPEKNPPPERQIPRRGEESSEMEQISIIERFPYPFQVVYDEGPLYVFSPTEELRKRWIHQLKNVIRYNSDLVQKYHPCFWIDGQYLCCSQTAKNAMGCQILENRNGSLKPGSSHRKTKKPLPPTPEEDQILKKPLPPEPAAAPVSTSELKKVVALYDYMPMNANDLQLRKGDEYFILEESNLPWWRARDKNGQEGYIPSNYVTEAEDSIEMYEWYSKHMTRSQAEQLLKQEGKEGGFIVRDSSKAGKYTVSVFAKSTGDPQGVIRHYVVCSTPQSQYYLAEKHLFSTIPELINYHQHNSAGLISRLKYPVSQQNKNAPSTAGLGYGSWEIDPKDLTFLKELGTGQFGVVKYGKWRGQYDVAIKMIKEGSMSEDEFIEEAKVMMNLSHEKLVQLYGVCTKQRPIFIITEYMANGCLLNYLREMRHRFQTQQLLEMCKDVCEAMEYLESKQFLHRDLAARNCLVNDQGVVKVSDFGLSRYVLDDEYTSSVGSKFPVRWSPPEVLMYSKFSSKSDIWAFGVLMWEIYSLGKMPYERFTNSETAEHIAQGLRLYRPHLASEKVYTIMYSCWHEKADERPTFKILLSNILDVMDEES

Question: Which results are given for `C=CC(=O)N[C@H]1CCC[C@H]1NC(=O)c1sc2nccc3c2c1NC(=O)N3c1cnc(CC(C)C)cc1C` (atropisomer, axis not shown) [compound of Formula (III), N-((1R,2S)-2-Acrylamidocyclopentyl)-5-(S)-(6-isobutyl-4-methylpyridin-3-yl)-4-oxo-4,5-dihydro-3H-1-thia-3,5,8-triazaacenaphthylene-2-carboxamide]?
Answer: IC50 [1]: 16 ± 3 nM; blood plasma ratio at 1 μM [2]: 0.69; IC50 [3]: 41 ± 11.7 nM; BTK protein occupancy in tumor ([4]; 1 mg/kg): No BTK occupancy; BTK protein occupancy in tumor ([4]; 3 mg/kg): No BTK occupancy; receptor occupancy at 10 mg/kg ([4]; 4 hours): 54%; receptor occupancy at 10 mg/kg ([4]; 12 hours): 71%; receptor occupancy at 10 mg/kg ([4]; 24 hours): 70%; receptor occupancy at 30 mg/kg ([4]; 4 hours): 90%; receptor occupancy at 30 mg/kg ([4]; 12 hours): 94%; receptor occupancy at 30 mg/kg ([4]; 24 hours): 91%; receptor occupancy at 100 mg/kg ([4]; 4 hours): 95%; receptor occupancy at 100 mg/kg ([4]; 12 hours): 96%; receptor occupancy at 100 mg/kg ([4]; 24 hours): 85%
